Data: BigSolDB 2.1

Conditions: 298.15 K

Structure (SMILES): O=c1c(O)c(-c2ccc(O)cc2)oc2cc(O)cc(O)c12
- solubility (mole fraction) (in ethyl acetate): 0.00452
- solubility (mole fraction) (in methanol): 0.00324
- solubility (mole fraction) (in n-butyl acetate): 0.0024
- solubility (mole fraction) (in n-propyl acetate): 0.00275

Structure (SMILES): Oc1ccc(/C=C/c2cc(O)cc(O)c2)cc1
- solubility (mole fraction) (in ethyl acetate): 0.00895
- solubility (mole fraction) (in methanol): 0.0189
- solubility (mole fraction) (in n-butyl acetate): 0.00463
- solubility (mole fraction) (in n-propyl acetate): 0.00596

Structure (SMILES): OC[C@H]1O[C@@H](Oc2cc(O)cc(/C=C/c3ccc(O)cc3)c2)[C@H](O)[C@@H](O)[C@@H]1O
- solubility (mole fraction) (in ethyl acetate): 6.73e-05
- solubility (mole fraction) (in methanol): 0.0086
- solubility (mole fraction) (in n-butyl acetate): 1.96e-05
- solubility (mole fraction) (in n-propyl acetate): 3.37e-05

Structure (SMILES): O=c1c(O)c(-c2ccc(O)c(O)c2)oc2cc(O)cc(O)c12
- solubility (mole fraction) (in ethyl acetate): 0.00223
- solubility (mole fraction) (in methanol): 0.00144
- solubility (mole fraction) (in n-butyl acetate): 0.00184
- solubility (mole fraction) (in n-propyl acetate): 0.0019
